Data: patent US6809120B1, “Composition containing propargylamine for enhancing cancer therapy” (University of Saskatchewan Technologies Inc., priority 1998, dated 2004)

Assays:
[1] = test system: NW16 cells; test: In vitro clonogenic cell survival assay in soft agar, modulation of cisplatinum toxicity in tumorigenic cells (RATIO method); assay type: cell-based, rat; conditions: for enhanced killing of tumor cells in the presence of cisplatinum (result in words): in vitro fibroblast model
Excerpt: The protocol detailed below can be used for any normal/tumorigenic cell pair which will attach to plastic. Non-adherent lines (which includes most tumor cells, including NW16; consult references 5-10) require quantitation in soft agar. The present experiments are based on i) rat2 cells, a phenotypically normal, established rat fibroblast line and, ii) a tumorigenic derivative thereof, NW16 cells, which are rat2 cells transformed by a Fujinami sarcoma virus oncogene (see work of A. Pawson and P130^gag-fps). Rat2 and NW16 cells are maintained in a sub-confluent randomly-proliferating state in Dulbecco's modified minimal essential media with 10% (vol/vol) calf serum in plates incubated at 37° C. in a humidified CO2 (10%) incubator. All experiments reported rely on clonogenic cell survival assays (see references 4-6). Assays using rat2 (normal cells) were performed as follows: cells are exposed, in 10 cm culture dishes, to various drugs in media plus serum for varying lengths of time; seeding is at varying cell numbers, over log10 ranges, depending upon the degree of killing anticipated. [For the figure presented, incubation was for 72 hours prior to washing and assessment of clonogenic survival]. Both control and the experimental cultures are then gently washed, twice, with phosphate buffered saline, then once more with media minus serum, and then left in media plus serum, undisturbed until macroscopic colonies appear (7-9 days of incubation). The colonies are then fixed and stained with saturated methylene blue in 50% methanol and counted. The number of colonies, evaluated from 2 or more sets of duplicate cultures seeded at initial densities differing by factors of 10, are determined and converted to relative number of colonies, using the 0-hour control value as 1.0. Assays of NW16 cells were similar; however, because these cells are poorly adherent, following drug exposure, the washing procedure is modified, as is the quantitation of survivors step. In the latter case, quantitation requires plating the cells in soft agar (references 5-10). […]

[2] = test system: rat2 cells; test: In vitro clonogenic cell survival assay, modulation of cisplatinum toxicity in normal cells (RATIO method); assay type: cell-based, rat; conditions: with cisplatinum
Excerpt: The protocol detailed below can be used for any normal/tumorigenic cell pair which will attach to plastic. Non-adherent lines (which includes most tumor cells, including NW16; consult references 5-10) require quantitation in soft agar. The present experiments are based on i) rat2 cells, a phenotypically normal, established rat fibroblast line and, ii) a tumorigenic derivative thereof, NW16 cells, which are rat2 cells transformed by a Fujinami sarcoma virus oncogene (see work of A. Pawson and P130^gag-fps). Rat2 and NW16 cells are maintained in a sub-confluent randomly-proliferating state in Dulbecco's modified minimal essential media with 10% (vol/vol) calf serum in plates incubated at 37° C. in a humidified CO2 (10%) incubator. All experiments reported rely on clonogenic cell survival assays (see references 4-6). Assays using rat2 (normal cells) were performed as follows: cells are exposed, in 10 cm culture dishes, to various drugs in media plus serum for varying lengths of time; seeding is at varying cell numbers, over log10 ranges, depending upon the degree of killing anticipated. [For the figure presented, incubation was for 72 hours prior to washing and assessment of clonogenic survival]. Both control and the experimental cultures are then gently washed, twice, with phosphate buffered saline, then once more with media minus serum, and then left in media plus serum, undisturbed until macroscopic colonies appear (7-9 days of incubation). The colonies are then fixed and stained with saturated methylene blue in 50% methanol and counted. The number of colonies, evaluated from 2 or more sets of duplicate cultures seeded at initial densities differing by factors of 10, are determined and converted to relative number of colonies, using the 0-hour control value as 1.0. Assays of NW16 cells were similar; however, because these cells are poorly adherent, following drug exposure, the washing procedure is modified, as is the quantitation of survivors step. In the latter case, quantitation requires plating the cells in soft agar (references 5-10).
A simplified presentation of the data, by the RATIO method, is show in FIG. 1. […] Ratios greater than unity indicate that the modulator has conferred a protective response, whereas ratios less than unity indicate an enhanced cell killing.

[3] = test system: normal femoral bone marrow cells (CFU-C/GM); test: In vivo assessment of anticancer drug modulators: relative cell survival of normal femoral bone marrow cells in P388-bearing mice; conditions: for toxicity of cisplatinum to the marrow cells in the presence of modulator / protection of normal bone marrow cells (result in words): DBA/2J mice with P388, ip; for toxicity of cisplatinum to the marrow cells in the presence of modulator: cisplatinum 0.2 mg plus modulator, 48 h; for protection of normal bone marrow cells (result in words): with cisplatinum 0.2 mg, Histidinol 5 mg/injection or R-2HPA 0.38 ug/injection x5, 48 h after treatment, FIG. 2
Description: (§1) Seven groups of mice were treated and assessed in this model as follows:
(§2) P388 cells (1 million) were injected into the tail vein of 22 female DBA/2J mice (Protocol first developed in reference 6 and 8). The mice were then randomly divided into the above groups and injected (ip) with drugs 96 h later. Doses were cisplatinum 0.2 mg at 0 hour; Histidinol 5 mg/injection and R-2HPA 0.38 ug/injection; administered 5 times at −2, 0, +2, +4, and +6 hours. 48 h after drug treatment, cells from the femurs of the mice were harvested, washed and plated (at log10 dilutions) so as to allow quantitative and specific relative cell survival values to be generated for the responses of normal femoral bone marrow cells (specifically, CFU-C/GM or granulocyte/macrophage precursor cells) and clonogenic P388 leukemia cells (8).

[4] = test system: P388 leukemia cells; test: In vivo assessment of anticancer drug modulators: relative cell survival of clonogenic P388 leukemia cells in femurs of mice; conditions: DBA/2J mice; for increase of cisplatinum toxicity to the leukemia cells in the presence of modulator / enhanced killing by cisplatinum of P388 cells (result in words): ip, 48 h; for increase of cisplatinum toxicity to the leukemia cells in the presence of modulator: cisplatinum 0.2 mg plus modulator; for enhanced killing by cisplatinum of P388 cells (result in words): with cisplatinum 0.2 mg, Histidinol 5 mg/injection or R-2HPA 0.38 ug/injection x5, FIG. 3
Description: as §1, §2

Row | Compound | enhanced killing of tumor cells in the presence of cisplatinum (result in words) [1] | protection of normal fibroblasts from cisplatinum (result in words) ([2]; FIG. 1) | toxicity of cisplatinum to the marrow cells in the presence of modulator [3] | protection of normal bone marrow cells (result in words) [3] | increase of cisplatinum toxicity to the leukemia cells in the presence of modulator [4] | enhanced killing by cisplatinum of P388 cells (result in words) [4] | also measured
1 | C#CCN(C)[C@H](C)CCCCC [R-2HMP, R-2-heptyl-methylpropargylamine] | enhance the killing of tumor cells | protect normal cells | – | – | – | – | concentration at which the effect reverses to a protective effect in tumorigenic cells ([1]; NW16 tumorigenic cells, with cisplatinum, FIG. 1): ≥ 10^−9 M
2 | C#CCN[C@H](C)CCCCC [R-2HPA, R-2-heptyl-propargylamine] | enhance the killing of tumor cells | protect normal cells | essentially eliminated | effective at protecting normal bone marrow cells | ~1000 fold | enhanced the killing by cisplatinum of P388 cells | therapeutic index between protection of healthy normal cells and killing of cancerous cells ([4]; R-2HPA 0.38 ug dose with cisplatinum): about 50,000; protection of normal fibroblasts from cisplatinum (result in words) ([2]; FIG. 1, listed as R-2BPA): more potent
3 | C#CCN(C)[C@@H](C)CCCCC [S-2HMP] | – | inactive | – | – | – | – | –
4 | N.N.[Cl][Pt][Cl] [cisplatinum] | – | – | – | – | – | – | effectiveness at killing normal marrow cells relative to intrafemoral leukemia cells, drug used alone ([3]; cisplatinum 0.2 mg ip alone, DBA/2J mice with P388, 48 h): about 100 times
5 | N[C@H](CO)Cc1c[nH]cn1 [histidinol, L-histidinol, reference compound] | – | exhibits similar properties | essentially eliminated | effective at protecting normal bone marrow cells | ~1000 fold | enhanced the killing by cisplatinum of P388 cells | –
6 | R-deprenyl [reference compound] | – | less efficacious | – | – | – | – | –
